The record followed here is PubChem BioAssay (NCI).

As usually defined, the TGI is the concentration giving total growth inhibition.

Test in all cases: DTP human tumour cell line panel, 48 h
The subject of assay [1] is SF-268 CNS.
In assay [2] the test system is HS 578T breast.
In assay [3] the test system is MALME-3M melanoma.
In assay [4] the test system is CAKI-1 renal.
The test system of assay [5] is NCI-H460 lung.
Assay [6] concerns EKVX NSCLC.
The test system of assay [7] is SF-295 CNS.
Assay [8] relates to COLO 205 colon.
Assay [9] relates to HT29 colon.
Assay [10] relates to MOLT-4 leukemia.
Assay [11] concerns HOP-92 NSCLC.

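96-well plates; 48 h exposure; 5 concentrations. Endpoints by linear interpolation between flanking doses. Not reached: highest tested concentration assigned. TGI denotes the concentration required for complete inhibition of growth.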 Where only a bound is given, the exact number is not on record here.

As for `CCCCc1c(O)nc(Nc2nc3ccccc3[nH]2)[nH]c1=O`, the TGI was more than 100 µM in assay [1]; 88 µM in [2]; more than 100 µM in [3]; more than 100 µM in assay [4]; more than 100 µM in [5]; more than 100 µM in assay [6]. The total growth inhibition concentration (TGI) in assay [7], in [8], in assay [9] and in assay [10] was more than 100 µM throughout.
On to `COc1ccc2nc(-c3ccc(OCc4ccccc4)cc3)ccc2c1`, for which the total growth inhibition concentration (TGI) in assay [1], in assay [3], in assay [5], in [6], in assay [7] and in assay [8] was more than 100 µM each time. For the same molecule, the TGI in [9], in assay [11] and in [10] was more than 100 µM in each case.
On to `COc1ccc(C2C(Cl)C(=O)N2NC(=O)c2ccc(NC(C)=O)cc2)cc1` (stereo not drawn), for which the TGI in [1], in [3], in assay [4], in [5], in assay [6] and in [7] was more than 100 µM throughout. Further, the total growth inhibition concentration (TGI) in assay [8], in [9], in assay [11] and in assay [10] was more than 100 µM in each case.
As for `Cc1sc2nc3n(c(=O)c2c1C)N=CN(c1ccccc1)C3`, the total growth inhibition concentration (TGI) in assay [1], in assay [3], in assay [4], in [5], in [6] and in [7] was more than 100 µM throughout. Besides, the TGI is more than 100 µM in [8], more than 100 µM in assay [9], 79.8 µM in assay [11] and more than 100 µM in assay [10].
With `O=C1CC(O)c2c1csc2Br` (stereo not drawn), the concentration for total growth inhibition (TGI) was 88.6 µM in assay [1]; 72.4 µM in [2]; 82.4 µM in assay [3]; more than 100 µM in [4]; more than 100 µM in assay [5]; more than 100 µM in assay [6]. The total growth inhibition concentration (TGI) in assay [7] was more than 100 µM; in [8], 59.9 µM; in assay [9] it was more than 100 µM; in assay [10], 55.3 µM.
Consider `CCOc1ccc(N/C(=C(/C(Cl)=C(/Cl)NCCN)[N+](=O)[O-])n2nnc3ccccc32)cc1`, for which the TGI in assay [1] was 34.5 µM; in [2], 98.2 µM; in assay [3] it was 27.6 µM; in assay [4] it was 34.8 µM; in [5], more than 100 µM; in assay [6], more than 100 µM. The TGI was more than 100 µM in [7], 32.4 µM in assay [8], more than 100 µM in [9] and more than 100 µM in assay [10].
As to `O=C1CC2C=CC(O)C(C1)C2` (stereo not drawn), the concentration for total growth inhibition (TGI) in assay [1], in assay [2], in assay [3], in assay [5], in assay [7] and in [8] was more than 100 µM each time. Moreover, the TGI in assay [9] and in [10] was more than 100 µM throughout.
As to `COC1(C)CC2N(C(=O)c3ccccc3)N=C(c3ccccc3)CC2(C)O1` (stereo not drawn), the concentration for total growth inhibition (TGI) in [1], in assay [3], in assay [4], in [5], in assay [7] and in assay [9] was more than 100 µM each time. Moreover, the concentration for total growth inhibition (TGI) in assay [11] and in assay [10] was more than 100 µM in each case.
With `Cc1ccccc1C1OC1C(=O)c1ccccc1N` (stereo not drawn), the TGI in [1], in assay [4], in [5], in assay [8], in assay [9] and in assay [11] was more than 100 µM throughout. In [10], this molecule showed a TGI of more than 100 µM.
On to `O=C1O[C@@H](c2ccccc2)C[C@@H]1CN1CCOCC1`, for which the TGI in assay [1], in assay [3], in assay [4], in assay [5], in [6] and in assay [7] was more than 100 µM throughout. For the same molecule, the concentration for total growth inhibition (TGI) in [8], in assay [9], in assay [11] and in [10] was more than 100 µM each time.
For the molecule `C[N+](C)(C)CC(=O)N/N=c1\cc(C(=O)Nc2ccc(N=O)cc2C#N)oc2cc(O)ccc12`, the TGI in [1], in [3], in assay [4], in assay [5], in assay [6] and in assay [7] was more than 100 µM each time. For the same molecule, the TGI in assay [8], in [9], in [11] and in [10] was more than 100 µM throughout.
Consider `Cc1c(Cl)cccc1NC(=O)C(=O)C1C(=O)CC(C)(C)CC1=O`, for which the total growth inhibition concentration (TGI) in [1], in assay [3], in assay [4], in [5], in assay [6] and in assay [7] was more than 100 µM throughout. The TGI in assay [8], in [9], in assay [11] and in [10] was more than 100 µM each time.
Turning to `CC1C(c2cc(C(C)(C)C)c(O)c(C(C)(C)C)c2)c2cc3c(cc2OC1N1CCOCC1)OCO3` (stereo not drawn), the TGI in assay [1] is 77.3 µM; in assay [2], 10.6 µM; in assay [5] it was 87 µM; in assay [6], more than 100 µM; in assay [7], 32.1 µM; in [8], more than 100 µM. For the same molecule, the TGI in [9] and in [10] was more than 100 µM in each case.
As for `CC1(C)CC2(C)CC1CC2O` (stereo not drawn), the TGI in [1], in [2], in assay [3], in assay [4], in assay [6] and in assay [7] was more than 100 µM in each case. The concentration for total growth inhibition (TGI) in assay [8], in assay [9] and in assay [10] was more than 100 µM in each case.
Turning to `CCOC(=O)c1cc(C2(O)CCN(Cc3ccccc3)C2=O)c(-c2cc(C)no2)[nH]1` (stereo not drawn), the TGI in [1] is more than 100 µM; in assay [2], more than 100 µM; in assay [3] it was more than 100 µM; in [4], 74.3 µM; in assay [5], more than 100 µM; in [6], more than 100 µM. The total growth inhibition concentration (TGI) in [7] is 78.4 µM; in assay [8] it was more than 100 µM; in assay [10], 41.9 µM.
In the case of `CCOP(=O)(OCC)[C@H](O)c1ccsc1`, the concentration for total growth inhibition (TGI) in [1], in assay [3], in assay [4], in [5], in [6] and in [7] was more than 100 µM in each case. In addition, the TGI in assay [8], in [9] and in [10] was more than 100 µM in each case.
`Cc1ccc(S(=O)(=O)N2CCN3C(=O)c4ccccc4C32c2ccc(F)cc2)cc1` (stereo not drawn): the TGI in assay [1], in assay [2], in assay [3], in [4], in assay [5] and in [6] was more than 100 µM throughout. Also, the concentration for total growth inhibition (TGI) in assay [7] was more than 100 µM; in assay [8], more than 100 µM; in assay [9], more than 100 µM; in [10], 65.9 µM.
Consider `N#CCCN(c1ccc(C=Nc2cccc([N+](=O)[O-])c2)cc1)S(=O)(=O)c1ccccc1`, for which the TGI in [1], in assay [3], in assay [4], in assay [6], in [7] and in assay [8] was more than 100 µM in each case. Moreover, the TGI in assay [9], in assay [11] and in assay [10] was more than 100 µM each time.
Consider `O=C1CC2(C[C@@H]3CCCCCCCCC[C@@H](C3)C2)N1` (stereo partly drawn), for which the TGI in [1] is 39.8 µM; in assay [3] it was 24.5 µM; in assay [4], 25.4 µM; in assay [5], 38.4 µM; in assay [6] it was 28.2 µM; in assay [7], 31.2 µM. In addition, the concentration for total growth inhibition (TGI) is 30.7 µM in assay [8], 26.9 µM in [9], 23 µM in assay [11] and 37.4 µM in assay [10].
As for `CCCN=C1CC(C)Nc2ccccc2N1` (stereo not drawn), the concentration for total growth inhibition (TGI) in assay [1], in [2], in assay [3], in assay [4], in assay [5] and in assay [6] was more than 100 µM each time. The TGI in assay [7], in assay [8], in assay [9] and in assay [10] was more than 100 µM in each case.
Take `COC(=O)c1cc(CC(C)C)c2c(c1)[nH]c1ccccc12`: the concentration for total growth inhibition (TGI) in assay [1], in assay [3], in assay [4], in assay [5], in assay [6] and in assay [7] was more than 100 µM each time. For the same molecule, the total growth inhibition concentration (TGI) in assay [8], in assay [9], in assay [11] and in [10] was more than 100 µM each time.
For the molecule `CC(C)(C)OC(=O)NC(C)(C)C(=O)NCCC(=O)O`, the total growth inhibition concentration (TGI) in assay [1], in assay [2], in [4], in assay [5], in assay [6] and in assay [7] was more than 100 µM each time. In addition, the TGI in assay [8], in assay [9] and in assay [10] was more than 100 µM each time.
As for `CC(C)C(Sc1nc(-c2ccccc2)c(-c2ccccc2)[nH]1)C(=O)NNC(=S)Nc1ccccc1` (stereo not drawn), the TGI stood at 46.5 µM in assay [1]; 33.3 µM in assay [3]; 33.9 µM in assay [5]; 61.4 µM in assay [6]; 35.5 µM in assay [7]; 35.9 µM in [8]. The TGI worked out at 36.8 µM in assay [9], 34.3 µM in assay [11] and 33 µM in [10].
Turning to `CCOC(=O)C(OCC1CC=CCC1)Sc1ccccc1` (stereo not drawn), the TGI in [1], in assay [3], in [4], in [5], in assay [6] and in assay [7] was more than 100 µM throughout. The TGI in assay [8], in assay [9] and in assay [11] was more than 100 µM each time.
With `CCSc1nnc(CSc2nc(-c3ccccc3)c(-c3ccccc3)[nH]2)n1-c1ccccc1`, the TGI is 43.3 µM in [1]; 44.2 µM in assay [3]; 63.7 µM in [4]; 36.9 µM in assay [5]; 63.5 µM in assay [6]; 44.7 µM in assay [7]. Also, the total growth inhibition concentration (TGI) is 29.5 µM in assay [8], 35.4 µM in [9], 38.5 µM in [11] and 40 µM in assay [10].
For `CC12CC(c3ccccc3O1)C(C(=O)Nc1ccc(F)cc1)C(=O)N2` (stereo not drawn), the concentration for total growth inhibition (TGI) in [1], in assay [2], in assay [3], in assay [4], in [5] and in [6] was more than 100 µM throughout. For the same molecule, the concentration for total growth inhibition (TGI) in assay [8] is more than 100 µM; in [9] it was more than 100 µM; in assay [10] it was 76.5 µM.
With `CO[C@@H](C(=O)OC1C=CC2(CC1)C(=O)N(C)c1ccccc12)c1ccccc1` (stereo partly drawn), the TGI in assay [4], in assay [5], in [6], in assay [7], in assay [8] and in assay [9] was more than 100 µM throughout. Further, the total growth inhibition concentration (TGI) in assay [11] and in assay [10] was more than 100 µM throughout.
`CCOC(=O)C1=C(C)N(c2ccccc2)C2=C(C(=O)N(c3ccccc3)C2c2ccccc2)C1c1ccccc1` (stereo not drawn): the TGI in assay [1], in [3], in [4], in [5], in [6] and in assay [7] was more than 100 µM throughout. Also, the concentration for total growth inhibition (TGI) in [8], in [9], in assay [11] and in assay [10] was more than 100 µM throughout.
Consider `COc1ccc(/C(=C/n2ccnc2)C(=O)c2ccc(OC)c(OC)c2)cc1`, for which the TGI in [1], in assay [3], in assay [4], in [5], in assay [6] and in assay [8] was more than 100 µM in each case. In addition, the total growth inhibition concentration (TGI) in assay [11] and in [10] was more than 100 µM in each case.
